This is an account of results in ChEMBL document CHEMBL1201862, “PubChem BioAssay data set” (2004).

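Method: 48-hour compound exposure of cells in 96-well plates, five concentrations, linear interpolation of endpoints. GI50 = concentration required for 50% inhibition of growth.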 Calls of active or inactive are those of the source. Rule as the data show it: active = GI50 up to about 1.1 µM and inactive = higher. A value given as a limit tells only on which side of the number the result lay.

What all share (assay): DTP human tumour cell line panel, 48 h
For experiment [1], the system named is SF-539.
In experiment [2] the test system is HL-60.
For experiment [3], the system named is SR.
Experiment [4] deals with NCI-H226.
In experiment [5] the test system is M19-MEL.
Experiment [6] concerns HT-29.
The subject of experiment [7] is SK-MEL-28.
The subject of experiment [8] is RPMI-8226.
Experiment [9] relates to DU-145.
Experiment [10] deals with KM12.
For experiment [11], the system named is Hs-578T.
The subject of experiment [12] is SK-MEL-5.
Experiment [13] relates to BT-549.
Experiment [14] has as its system MDA-MB-231.
Experiment [15] relates to SK-MEL-2.
In experiment [16] the test system is HOP-92.
Experiment [17] has as its system HCT-15.
Experiment [18] deals with SNB-19.
Experiment [19] relates to NCI-H23.
Experiment [20] concerns UACC-257.

As a reminder, the GI50 is the concentration at which growth is held to half of that of the control. On to `CO[C@@H]1[C@H](OC(=O)NC(=O)CCl)CC[C@]2(CO2)[C@H]1[C@@]1(C)O[C@@H]1CC=C(C)C` [O-CHLOROACETYLCARBAMOYLFUMAGILLOL], for which the GI50 in [1] was 10.6 µM (inactive); in experiment [2], 2.54 µM (inactive); in [3], 5.64 µM (inactive); in experiment [4], 19 µM (inactive); in experiment [5] it was 6.49 µM (inactive); in [6], 5.66 µM (inactive). For the same molecule, the GI50 was 12.8 µM (inactive) in [7]; 6.93 µM (inactive) in [8]; 12.2 µM (inactive) in experiment [9]; 11.5 µM (inactive) in experiment [10]; 19.9 µM (inactive) in experiment [11]; 8.83 µM (inactive) in experiment [12]. In addition, the GI50 was 14.6 µM (inactive) in experiment [13]; 15.9 µM (inactive) in experiment [14]; 13.6 µM (inactive) in [15]; 15.6 µM (inactive) in experiment [16]; 14.1 µM in experiment [17]; 12 µM (inactive) in [18]. Besides, the GI50 in [19] was 15.8 µM (inactive); in experiment [20] it was 11 µM (inactive).

On to `CCCCCCCCCc1cc(=O)c2c(O)cccc2o1`, for which the GI50 was > 100 µM (inactive) in experiment [1]; 25.2 µM (inactive) in [2]; 37.4 µM (inactive) in [3]; 38.1 µM (inactive) in experiment [4]; > 10 µM (inactive) in experiment [5]; > 10 µM (inactive) in [6]. Besides, the GI50 in [7] is 55.6 µM (inactive); in experiment [8], 38.2 µM (inactive); in experiment [10], 40.6 µM (inactive); in [12], 21 µM (inactive); in experiment [15] it was 23.2 µM (inactive); in experiment [16], 57.5 µM (inactive). Further, the GI50 in experiment [17] is 41.3 µM; in [18] it was 74.3 µM (inactive); in [19], 65.5 µM (inactive); in [20] it was 36.3 µM (inactive).

In the case of `C[S+](C)C1(c2ccccc2)C(=O)c2ccccc2C1=O`, the GI50 in experiment [1] is 28.7 µM (inactive); in experiment [2], > 31.6 µM (inactive); in experiment [3], > 72.8 µM (inactive); in experiment [4], 48 µM (inactive); in experiment [5], > 100 µM (inactive); in experiment [6], > 100 µM (inactive). For the same molecule, the GI50 in experiment [7] is > 100 µM (inactive); in [8], > 62.1 µM (inactive); in [9], > 100 µM (inactive); in experiment [10], > 100 µM (inactive); in experiment [11], 24.4 µM (inactive); in experiment [12] it was > 38.5 µM (inactive). In addition, the GI50 is 11.8 µM (inactive) in [13]; > 43 µM (inactive) in experiment [15]; > 60.8 µM (inactive) in experiment [16]; over 51.1 µM in experiment [17]; 39 µM (inactive) in experiment [18]; > 65.9 µM (inactive) in experiment [19]. In addition, the GI50 in experiment [20] is > 64.9 µM (inactive).

`Cc1ccc(C(=O)OC(C)C)cc1/N=N/N(C)C`: the GI50 in experiment [1] was > 100 µM (inactive); in experiment [2] it was 39.8 µM (inactive); in experiment [3] it was > 100 µM (inactive); in [5], 97.7 µM (inactive); in experiment [6], > 100 µM (inactive); in experiment [7], > 100 µM (inactive). Also, the GI50 in experiment [8] is > 100 µM (inactive); in [9], > 100 µM (inactive); in [10] it was > 84.5 µM (inactive); in [11], > 100 µM (inactive); in [12], > 64.9 µM (inactive); in [13], > 100 µM (inactive). Besides, the GI50 in [14] was > 100 µM (inactive); in [15], > 100 µM (inactive); in [16], > 93.3 µM (inactive); in experiment [17], over 100 µM; in experiment [18] it was > 69.8 µM (inactive); in experiment [19], 45.3 µM (inactive). Moreover, the GI50 in experiment [20] was 27.1 µM (inactive).

In the case of `COC(=O)C1=C(c2ccc3c(c2)OCO3)O[C@H](c2ccc3c(c2)OCO3)[C@H]1COC(C)=O`, the GI50 was 61.2 µM (inactive) in experiment [1]; 21.8 µM (inactive) in experiment [2]; 32.1 µM (inactive) in [3]; 39 µM (inactive) in experiment [4]; 33.3 µM (inactive) in experiment [5]; 36.2 µM (inactive) in experiment [6]. For the same molecule, the GI50 in experiment [7] is 65 µM (inactive); in [8], 60.4 µM (inactive); in experiment [10], 62.4 µM (inactive); in experiment [12], 24.5 µM (inactive); in [15], 63 µM (inactive); in experiment [16] it was 30.5 µM (inactive). Also, the figures for the 50% growth inhibitory concentration (GI50) in [17], in experiment [19] and in experiment [20] were 53.1 µM, 37.3 µM (inactive) and 55.2 µM (inactive), respectively.

As to `CCOC(=O)Nc1cc2nnc(-c3ccccc3)nc2c(N)n1`, the GI50 in experiment [1] was 18.4 µM (inactive); in [2] it was 17.7 µM (inactive); in [3] it was 23.9 µM (inactive); in experiment [4], 24 µM (inactive); in experiment [5], 4.35 µM (inactive); in experiment [6], 6.07 µM (inactive). Moreover, the GI50 is 16.2 µM (inactive) in [7]; 24.3 µM (inactive) in [8]; 1.1 µM (active) in [10]; 2.23 µM (inactive) in experiment [12]; 11.4 µM (inactive) in [15]; 13 µM (inactive) in experiment [16]. Besides, the GI50 in experiment [17] is 6.46 µM; in experiment [18], 32.1 µM (inactive); in [19], 14.1 µM (inactive); in [20], 15.7 µM (inactive).

In the case of `COC1/C=C\C=C(/C)C(=O)NC2=CC(=O)C(NCCCl)=C(CC(C)CC(OC)C(O)C(C)/C=C(/C)C1OC(N)=O)C2=O` (stereo unspecified), the GI50 is 0.127 µM (active) in experiment [1]; 0.0281 µM (active) in [2]; 0.0341 µM (active) in experiment [3]; 0.729 µM (active) in experiment [4]; 0.0366 µM (active) in [5]; 0.0158 µM (active) in [6]. The concentration for 50% growth inhibition (GI50) is 0.0373 µM (active) in experiment [7]; 0.0977 µM (active) in [8]; 0.569 µM (active) in experiment [9]; 0.125 µM (active) in experiment [10]; 4.89 µM (inactive) in experiment [11]; 0.34 µM (active) in experiment [12]. The GI50 is 1.25 µM (inactive) in [13]; 2 µM (inactive) in experiment [14]; 0.147 µM (active) in experiment [15]; 0.384 µM (active) in experiment [16]; 0.301 µM in experiment [17]; 0.927 µM (active) in experiment [18]. The values for the concentration for 50% growth inhibition (GI50) in [19] and in experiment [20] were 0.0715 µM (active) and 0.0363 µM (active), respectively.

Regarding `NC1=NS(=O)(=O)Nc2[nH]c(-c3ccccc3)nc21`, the GI50 in experiment [1], in experiment [2], in experiment [3], in [4], in experiment [5] and in experiment [6] was > 100 µM (inactive) throughout. Besides, the GI50 in experiment [7], in experiment [8], in [10], in experiment [12], in [15] and in experiment [16] was > 100 µM (inactive) each time. Also, the concentration for 50% growth inhibition (GI50) was over 100 µM in experiment [17], > 100 µM (inactive) in experiment [18], > 100 µM (inactive) in experiment [19] and > 100 µM (inactive) in [20].

`COC(=O)C12OCC34C(CC5C(C)=CC(=O)C(O)C5(C)C3C(O)C1O)OC(=O)C(OC(=O)CC(C)C)C24` (stereo unspecified): the GI50 was 0.00064 µM (active) in experiment [1]; 0.000208 µM (active) in experiment [2]; 0.000327 µM (active) in experiment [3]; 0.00109 µM (active) in experiment [4]; 0.00134 µM (active) in [5]; 0.000973 µM (active) in experiment [6]. Moreover, the concentration for 50% growth inhibition (GI50) in [7] is 0.00134 µM (active); in [8], 0.000371 µM (active); in [9], 0.00083 µM (active); in [10], 0.00166 µM (active); in experiment [11], 0.000164 µM (active); in experiment [12] it was 0.000624 µM (active). Moreover, the concentration for 50% growth inhibition (GI50) in experiment [13] was 0.000463 µM (active); in experiment [14], 0.00369 µM (active); in experiment [15], 0.00281 µM (active); in [16] it was 0.00324 µM (active); in experiment [17], 0.00288 µM; in experiment [18], 0.0014 µM (active). For the same molecule, the GI50 in experiment [19] is 0.000778 µM (active); in experiment [20], 0.00284 µM (active).
